Reference: patent publication US20120071496A1, “Aminopyrimidinamides As Pest Control Agents” (Bayer CropScience AG, priority 2009, published 2012)

How the values were obtained:
[1] = tested on: Spodoptera litura third instar larvae; test: Test against tobacco cutworm (Spodoptera litura) larvae; type: in vivo; conditions: active compound concentration 100 ppm; immersed sweet potato leaves; after 7 days
Experimental: Unless not mentioned otherwise, the test solutions were prepared as follows:
Containing as solvent: Dimethylformamide, 3 parts by weight; and as emulsifier: Polyoxyethylene alkyl phenyl ether, 1 part by weight
Test Against Tobacco Cutworm (Spodoptera litura) Larvae
Leaves of sweet potato were immersed in the test solution at the appropriate concentration, and the leaves were dried in air. The leaves were then placed in a petri dish having a diameter of 9 cm, and ten Spodoptera litura at third instar larvae were released therein. The petri dishes were placed in a temperature-controlled chamber at 25° C. After 2 days and 4 days more sweet potato leaves were added. After 7 days, the number of dead larvae was counted to calculate the insecticidal activity. An insecticidal activity of 100% means that all larvae were killed, whereas an insecticidal activity of 0% means that no larva was killed.

logP (HCOOH) = type: physicochemical

CCCc1ncccc1C(=O)Nc1c(NC2CC2)ncnc1-c1ccccc1 [1-237] showed an insecticidal activity [1] of 100%.

Compound CCc1ncccc1C(=O)Nc1c(NC2CC2)ncnc1-c1ccc(C(F)(C(F)(F)F)C(F)(F)F)cc1 [1-232] has an insecticidal activity [1] of 100%.

CCCc1ncccc1C(=O)Nc1c(NC2CC2)ncnc1-c1ccc(Cl)cc1Cl [1-244] showed an insecticidal activity [1] of 100%.

Compound O=C(Nc1c(NC2CC2)ncnc1-c1ccc(Cl)cc1)c1cccnc1C1CC1 [1-236] has an insecticidal activity [1] of 100%.

Work on CCCc1ncccc1C(=O)Nc1c(NC2CC2)ncnc1-c1ccc(Cl)cc1 [1-239] yielded an insecticidal activity [1] of 100%.

CCc1ccccc1C(=O)Nc1c(NC2CC2)ncnc1-c1ccc(OC(F)(F)F)cc1 [1-257] gave an insecticidal activity [1] of 100%.

In the case of CCCc1ncccc1C(=O)Nc1c(NC2CC2)ncnc1-c1ccc(F)cc1F [1-245], the insecticidal activity [1] is reported as 100%.

With CCc1ncccc1C(=O)Nc1c(NC2CC2)ncnc1-c1ccc(Oc2cccc(C(F)(F)F)n2)cc1 [1-312] the insecticidal activity [1] was 100%.

In the case of O=C(Nc1c(NC2CC2)nc(C(F)(F)F)nc1-c1ccc(F)cc1)c1cccnc1CC(F)(F)F [1-324], the insecticidal activity [1] is reported as 100%.

For N#Cc1ccc(-c2ncnc(NC3CC3)c2NC(=O)c2cccnc2C2CC2)cc1 [1-242], the insecticidal activity [1] was 100%.

CCc1ncccc1C(=O)Nc1c(NC2CC2)nc(C(F)(F)F)nc1-c1ccc(F)cc1F [1-314] gave an insecticidal activity [1] of 100%.

Work on CCc1ncccc1C(=O)Nc1c(NC2CC2)ncnc1-c1ccc(Cn2nc(C(F)(F)C(F)(F)F)cc2C(F)(F)F)cc1 [1-247] yielded an insecticidal activity [1] of 100%.

CCc1ncccc1C(=O)Nc1c(NC2CC2)ncnc1-c1ccc(Cl)cc1Cl [1-126, N-[4-Cyclopropylamino-6-(2,4-dichlorophenyl)pyrimidin-5-yl]-2-ethylnicotinamide] showed a chromatographic logP (logP (HCOOH); HCOOH (formic acid), Table 2) of 1.6.

For CCc1ncccc1C(=O)Nc1c(NC2CC2)ncnc1-c1ccc(C#N)cc1 [1-133], the “logP (HCOOH)” value (logP (HCOOH); Table 2) was 1.10.

In the case of Cc1ncccc1C(=O)Nc1c(NC(C)C)ncnc1-c1ccc(OC(F)(F)F)cc1 [1-74], the “logP (HCOOH)” value (logP (HCOOH); Table 2) is reported as 1.55.

In the case of CCc1ncccc1C(=O)Nc1c(NC2CC2)ncnc1-c1ccc(C#N)cc1C [1-181], the “logP (HCOOH)” value (logP (HCOOH); Table 2) is reported as 1.22.

With CCc1ncccc1C(=O)Nc1c(NC2CC2)ncnc1-c1ccc(C(F)(F)F)cc1C [1-189] the “logP (HCOOH)” value (logP (HCOOH); Table 2) was 1.77.

With CCc1ncccc1C(=O)Nc1c(NC2CC2)nc(C)nc1-c1ccc(F)cc1F [1-278] the “logP (HCOOH)” value (logP (HCOOH); Table 2) was 1.

For O=C(Nc1c(NC2CC2)ncnc1-c1ccc(OC(F)(F)F)cc1)c1ccccc1 [1-112], the “logP (HCOOH)” value (logP (HCOOH); Table 2) was 2.12.

For CCc1ncccc1C(=O)Nc1c(NC(C)C2CC2)ncnc1-c1ccc(F)cc1 (stereo not drawn) [1-143], the “logP (HCOOH)” value (logP (HCOOH); Table 2) was 1.47.

In the case of CCc1ncccc1C(=O)Nc1c(NC2CC2)ncnc1-c1ccc(F)c(F)c1 [1-4], the “logP (HCOOH)” value (logP (HCOOH); Table 2) is reported as 1.34.

For CCc1ncccc1C(=O)Nc1c(CC)ncnc1NC1CC1 [3-8], the “logP (HCOOH)” value (logP (HCOOH); Table 4) was 1.74.

With CCc1ncccc1C(=O)Nc1c(NC(C)(C)C)ncnc1-c1ccc(C#N)cc1 [1-136] the “logP (HCOOH)” value (logP (HCOOH); Table 2) was 1.81.

In the case of CCc1ncccc1C(=O)Nc1c(NC2CC2)ncnc1-c1ccc(SC(F)(F)F)cc1 [1-114], the “logP (HCOOH)” value (logP (HCOOH); Table 2) is reported as 1.4.

For CCc1ncccc1C(=O)Nc1c(NC2CC2)ncnc1-c1ccccc1 [1-127], the “logP (HCOOH)” value (logP (HCOOH); Table 2) was 1.01.

In the case of O=C(Nc1c(NC2CC2)ncnc1-c1ccc(F)cc1)c1cccnc1OCC(F)(F)F [1-167], the “logP (HCOOH)” value (logP (HCOOH); Table 2) is reported as 2.12.

In the case of Cc1ncccc1C(=O)Nc1c(NC2CC2)ncnc1-c1ccc(F)cc1 [1-1], the “logP (HCOOH)” value (logP (HCOOH); Table 2) is reported as 0.71.

For COc1ncccc1C(=O)Nc1c(NC2CC2)ncnc1-c1ccc(C#N)cc1 [1-156], the “logP (HCOOH)” value (logP (HCOOH); Table 2) was 1.59.

For CCc1ncccc1C(=O)Nc1c(NC(C)C2(Cl)CC2)ncnc1-c1ccc(Cl)cc1Cl (stereo not drawn) [1-148], the “logP (HCOOH)” value (logP (HCOOH); Table 2) was 2.67.

For CCc1ncccc1C(=O)Nc1c(NC(C)(C)C)ncnc1-c1ccc(F)cc1 [1-134], the “logP (HCOOH)” value (logP (HCOOH); Table 2) was 1.53.

In the case of CCc1ncccc1C(=O)Nc1c(NC2CC2)ncnc1-c1ccc(F)cc1Cl [1-139], the “logP (HCOOH)” value (logP (HCOOH); Table 2) is reported as 0.79.

With CCc1ncccc1C(=O)Nc1c(NC2CC2)nc(SC)nc1-c1ccc(Cn2cnc(C(F)(F)C(F)(F)F)n2)cc1 [1-290] the “logP (HCOOH)” value (logP (HCOOH); Table 2) was 2.47.

With Cc1ncccc1C(=O)Nc1c(NC2CC2)ncnc1-c1cc(F)c(C(F)(F)F)c(F)c1 [1-122] the “logP (HCOOH)” value (logP (HCOOH); Table 2) was 1.95.
